Assay results taken from patent publication US20260007758A1, “SO[…]-2 RECEPTOR (SST2R) NON-PEPTIDE DRUG CONJUGATES AND USES THEREOF” (Crinetics Pharmaceuticals, Inc., priority 2024, published 2026).

Columns and labels:
Format in all cases: cell-based
[1] = biological target: T1, human somatostatin receptor subtype 2 (Homo sapiens, UniProt P30874); assay: Functional assay for SSTR2 agonists (HTRF cAMP); conditions: CHO-K1 cells stably expressing human SST2; NKH477-stimulated cAMP; 20 min at 37 C; read-out: hSST2 cAMP Avg EC50
T1 construct: expressed in transfected cells
Summary of the method: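 Agonist activity read as fall in intracellular cAMP: HTRF 665/620 nm ratio regressed to a cAMP standard curve, EC50 fitted. Stable human SSTR2 CHO-K1 cells exposed 20 min at 37 °C to compound, final concentrations typically 0-10,000 nM.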

SST2 = biological target: T2, SST2 (Homo sapiens, UniProt P30874); assay: PathHunter CHO-K1 SST2 Internalization Assay; conditions: PathHunter CHO-K1 SST2 cells; 90 min at 37 C; luminescence; read-out: Internalization EC50
T2 construct: host or cells: PathHunter CHO-K1 SST2 cells
Summary of the method: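 Four-parameter nonlinear fits of background-corrected luminescence (duplicate means) gave IC50s. NDCs were serially diluted 1:3 over 11 points from a 10 uM final top concentration and incubated 90 min at 37 C with human SST2 CHO-K1 cells plated 48 h earlier at 2500/well. Beta-Glo read-out developed 60 min at RT.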

[2] = test system: NCI-H524 human small cell lung cancer cells; assay: H524 assay: inhibition of cell proliferation (CellTiter Glo); conditions: 2 h treatment, washout, additional 70 h incubation
Summary of the method: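 Proliferation was measured by CellTiter Glo 70 h after a washout that followed a 2 h pulse of NDC. Doses were an 11-point, two-fold dilution series from 1 uM. IC50 was fitted with a four-parameter model to luminescence-based % inhibition relative to control cells.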

T1 sequence (P30874 whole entry): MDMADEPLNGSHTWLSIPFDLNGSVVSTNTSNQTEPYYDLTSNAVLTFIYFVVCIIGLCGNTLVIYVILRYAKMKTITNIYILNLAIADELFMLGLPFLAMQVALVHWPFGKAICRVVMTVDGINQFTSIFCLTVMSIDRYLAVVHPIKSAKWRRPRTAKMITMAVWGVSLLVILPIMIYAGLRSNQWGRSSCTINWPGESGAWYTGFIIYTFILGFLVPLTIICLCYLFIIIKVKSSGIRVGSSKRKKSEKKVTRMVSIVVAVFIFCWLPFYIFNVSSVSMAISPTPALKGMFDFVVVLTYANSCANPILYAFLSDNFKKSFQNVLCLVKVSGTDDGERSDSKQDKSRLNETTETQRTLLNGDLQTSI
T2 sequence (P30874 whole entry): as above

CC[C@H](C)[C@@H]([C@@H](CC(=O)N1CCC[C@H]1[C@H](OC)[C@@H](C)C(=O)N[C@H](C)[C@@H](O)c1ccccc1)OC)N(C)C(=O)[C@@H](NC(=O)[C@H](C(C)C)N(C)C(=O)OCc1ccc(NC(=O)[C@H](CCCNC(N)=O)NC(=O)[C@@H](NC(=O)CCOCCC(=O)NCCNc2ncc(-c3cc(C)cc(F)c3)c(N3CCC(N)CC3)c2-c2nc3ccc(Cl)cc3[nH]2)C(C)C)c(O[C@@H]2O[C@H](C(=O)NCCN)[C@@H](O)[C@H](O)[C@H]2O)c1)C(C)C [Compound 40]
EC50 [1]: 0.2 nM | EC50 (SST2): 8.7 nM | EC50 [2]: 1.7 nM

CC[C@H](C)[C@@H]([C@@H](CC(=O)N1CCCC1[C@H](OC)[C@@H](C)C(=O)N[C@H](C)[C@@H](O)c1ccccc1)OC)N(C)C(=O)[C@@H](NC(=O)[C@H](C(C)C)N(C)C(=O)OCc1ccc(NC(=O)[C@H](CCCNC(N)=O)NC(=O)[C@@H](NC(=O)CCOCCC(=O)N(C)CC(=O)NCCNc2ncc(-c3cc(C)cc(F)c3)c(N3CCC(N)CC3)c2-c2nc3ccc(Cl)cc3[nH]2)C(C)C)c(OC)c1)C(C)C (stereo partly drawn) [Compound 198]
EC50 [1]: 0.082 nM | EC50 (SST2): 3.5 nM | EC50 [2]: 32 nM

CC[C@H](C)[C@@H]([C@@H](CC(=O)N1CCC[C@H]1[C@H](OC)[C@@H](C)C(=O)N[C@H](C)[C@@H](O)c1ccccc1)OC)N(C)C(=O)[C@@H](NC(=O)[C@H](C(C)C)N(C)C(=O)OCc1ccc(NC(=O)[C@H](CCCNC(N)=O)NC(=O)[C@@H](NC(=O)CN(C)C(=O)CCOCCC(=O)NCCNc2ncc(-c3cc(C)cc(F)c3)c(N3CCC(N)CC3)c2-c2nc3ccc(Cl)cc3[nH]2)C(C)C)c(OCC(N)=O)c1)C(C)C [Compound 20]
EC50 [1]: 0.093 nM | EC50 (SST2): 7 nM | EC50 [2]: 29 nM

CC[C@H](C)[C@@H]([C@@H](CC(=O)N1CCC[C@H]1[C@H](OC)[C@@H](C)C(=O)N[C@H](C)[C@@H](O)c1ccccc1)OC)N(C)C(=O)[C@@H](NC(=O)[C@H](C(C)C)N(C)C(=O)OCc1ccc(NC(=O)[C@H](CCCNC(N)=O)NC(=O)[C@@H](NC(=O)CCOCCOCCC(=O)NCCNc2ncc(-c3cc(C)cc(F)c3)c(N3CCC(N)CC3)c2-c2nc3ccc(Cl)cc3[nH]2)C(C)C)cc1C(=O)NCCNC(=O)CCCCCCCCCCC(=O)O)C(C)C [Compound 83]
EC50 [1]: 0.53 nM | EC50 (SST2): 7 nM | EC50 [2]: 310 nM

CC[C@H](C)[C@@H]([C@@H](CC(=O)N1CCC[C@H]1[C@H](OC)[C@@H](C)C(=O)N[C@H](C)[C@@H](O)c1ccccc1)OC)N(C)C(=O)[C@@H](NC(=O)[C@H](C(C)C)N(C)C(=O)OCc1ccc(NC(=O)[C@H](CCCNC(N)=O)NC(=O)[C@@H](NC(=O)C[C@@H](N)C(=O)NCCOCCNC(=O)c2cc(NCCOCCC(=O)NCCNc3ncc(-c4cc(C)cc(F)c4)c(N4CCC(N)CC4)c3-c3nc4ccc(Cl)cc4[nH]3)cc(C(=O)NCC(=O)O)c2)C(C)C)cc1)C(C)C [Compound 163]
EC50 [1]: 0.15 nM | EC50 (SST2): 6.3 nM | EC50 [2]: 67 nM

CC[C@H](C)[C@@H]([C@@H](CC(=O)N1CCC[C@H]1[C@H](OC)[C@@H](C)C(=O)N[C@H](C)[C@@H](O)c1ccccc1)OC)N(C)C(=O)[C@@H](NC(=O)[C@H](C(C)C)N(C)C(=O)OCc1ccc(NC(=O)[C@H](CCCNC(N)=O)NC(=O)[C@@H](NC(=O)CCOCCC(=O)NCCNc2ncc(-c3cc(C)cc(F)c3)c(N3CCC(N)CC3)c2-c2nc3ccc(Cl)cc3[nH]2)C(C)C)cc1C(=O)NOCCN)C(C)C [Compound 88]
EC50 [1]: 0.25 nM | EC50 (SST2): 3.1 nM | EC50 [2]: 84 nM

CC[C@H](C)[C@@H]([C@@H](CC(=O)N1CCC[C@H]1[C@H](OC)[C@@H](C)C(=O)N[C@H](C)[C@@H](O)c1ccccc1)OC)N(C)C(=O)[C@@H](NC(=O)[C@H](C(C)C)N(C)C(=O)OCc1ccc(NC(=O)[C@H](CCCNC(N)=O)NC(=O)[C@@H](NC(=O)CCCC(=O)N(C)CC(=O)NCCNc2ncc(-c3cc(C)cc(F)c3)c(N3CCC(N)CC3)c2-c2nc3ccc(Cl)cc3[nH]2)C(C)C)c(O[C@@H]2O[C@H](C(=O)O)[C@@H](O)[C@H](O)[C@H]2O)c1)C(C)C [Compound 56]
EC50 [1]: 0.81 nM | EC50 (SST2): 68 nM | EC50 [2]: 26 nM

CC[C@H](C)[C@@H]([C@@H](CC(=O)N1CCC[C@H]1[C@H](OC)[C@@H](C)C(=O)N[C@H](C)[C@@H](O)c1ccccc1)OC)N(C)C(=O)[C@@H](NC(=O)[C@H](C(C)C)N(C)C(=O)OCc1ccc(NC(=O)[C@H](CCCNC(N)=O)NC(=O)[C@@H](NC(=O)CCOCCOCCC(=O)NCCNc2ncc(-c3cc(C)cc(F)c3)c(N3CCC(N)CC3)c2-c2nc3ccc(Cl)cc3[nH]2)C(C)C)cc1C(=O)NCCNC(=O)CCOCCOCCOCCOCCC(=O)O)C(C)C [Compound 74]
EC50 [1]: 0.19 nM | EC50 (SST2): 4.3 nM | EC50 [2]: 17 nM

CC[C@H](C)[C@@H]([C@@H](CC(=O)N1CCC[C@H]1[C@H](OC)[C@@H](C)C(=O)N[C@H](C)[C@@H](O)c1ccccc1)OC)N(C)C(=O)[C@@H](NC(=O)[C@H](C(C)C)N(C)C(=O)OCc1ccc(NC(=O)[C@H](CCCNC(N)=O)NC(=O)[C@@H](NC(=O)CCOCCC(=O)NCCNc2ncc(-c3cc(C)cc(F)c3)c(N3CCC(N)CC3)c2-c2nc3ccc(Cl)cc3[nH]2)C(C)C)c(O[C@@H]2O[C@H](C(=O)NCCNC(=O)CCCCCO[PH](=O)OC3CCC(c4ccccc4)(c4ccccc4)CC3)[C@@H](O)[C@H](O)[C@H]2O)c1)C(C)C (stereo partly drawn) [Compound 233]
EC50 [1]: 1 nM | EC50 (SST2): 18 nM | EC50 [2]: 500 nM

CC[C@H](C)[C@@H]([C@@H](CC(=O)N1CCC[C@H]1[C@H](OC)[C@@H](C)C(=O)N[C@H](C)[C@@H](O)c1ccccc1)OC)N(C)C(=O)[C@@H](NC(=O)[C@H](C(C)C)N(C)C(=O)OCc1ccc(NC(=O)[C@H](CCCNC(N)=O)NC(=O)[C@@H](NC(=O)CCOCCC(=O)NCCNc2ncc(-c3cc(C)cc(F)c3)c(N3CCC(N)CC3)c2-c2cc3ccc(Cl)cc3[nH]2)C(C)C)c(O[C@@H]2C[C@H](C(=O)NCCN)[C@@H](O)[C@H](O)[C@H]2O)c1)C(C)C [Compound 43]
EC50 [1]: 0.24 nM | EC50 (SST2): 6.6 nM | EC50 [2]: 1.8 nM

CC[C@H](C)[C@@H]([C@@H](CC(=O)N1CCC[C@H]1[C@H](OC)[C@@H](C)C(=O)N[C@H](C)[C@@H](O)c1ccccc1)OC)N(C)C(=O)[C@@H](NC(=O)[C@H](C(C)C)N(C)C(=O)OCc1ccc(NC(=O)[C@H](CCCNC(N)=O)NC(=O)[C@@H](NC(=O)CCOCCC(=O)NCCNc2ncc(-c3cc(C)cc(F)c3)c(N3CCC(N)CC3)c2-c2nc3cc(Cl)ccc3[nH]2)C(C)C)c(O[C@@H]2O[C@H](C(=O)NCC(=O)O)[C@@H](O)[C@H](O)[C@H]2O)c1)C(C)C [Compound 44]
EC50 [1]: 0.085 nM | EC50 (SST2): 4.5 nM | EC50 [2]: 4.8 nM

CC[C@H](C)[C@@H]([C@@H](CC(=O)N1CCC[C@H]1[C@H](OC)[C@@H](C)C(=O)N[C@H](C)[C@@H](O)c1ccccc1)OC)N(C)C(=O)[C@@H](NC(=O)[C@H](C(C)C)N(C)C(=O)OCc1ccc(NC(=O)[C@H](CCCNC(N)=O)NC(=O)[C@@H](NC(=O)[C@H](Cc2c[nH]cn2)NC(=O)CCOCCC(=O)NCCNc2ncc(-c3cc(C)cc(F)c3)c(N3CCC(N)CC3)c2-c2nc3ccc(Cl)cc3[nH]2)C(C)C)c(O[C@@H]2C[C@H](C(=O)NCC(=O)O)[C@@H](O)[C@H](O)[C@H]2O)c1)C(C)C [Compound 212]
EC50 [1]: 0.088 nM | EC50 (SST2): 4.5 nM | EC50 [2]: 20 nM

CC[C@H](C)[C@@H]([C@@H](CC(=O)N1CCC[C@H]1[C@H](OC)[C@@H](C)C(=O)N[C@H](C)[C@@H](O)c1ccccc1)OC)N(C)C(=O)[C@@H](NC(=O)[C@H](C(C)C)N(C)C(=O)OCc1ccc(NC(=O)[C@H](CCCNC(N)=O)NC(=O)[C@@H](NC(=O)c2cc(NCCOCCOCCOCCC(=O)NCCNc3ncc(-c4cc(C)cc(F)c4)c(N4CCC(N)CC4)c3-c3nc4ccc(Cl)cc4[nH]3)cc(C(=O)O)c2)C(C)C)cc1)C(C)C [Compound 177]
EC50 [1]: 0.23 nM | EC50 (SST2): 11 nM | EC50 [2]: 2300 nM

CC[C@H](C)[C@@H]([C@@H](CC(=O)N1CCC[C@H]1[C@H](OC)[C@@H](C)C(=O)N[C@H](C)[C@@H](O)c1ccccc1)OC)N(C)C(=O)[C@@H](NC(=O)C(C(C)C)N(C)C(=O)OCc1ccc(NC(=O)[C@H](CCCNC(N)=O)NC(=O)[C@@H](NC(=O)CCOCCC(=O)NCCNc2ncc(-c3cc(C)cc(F)c3)c(N3CCC(N)CC3)c2-c2nc3ccc(Cl)cc3[nH]2)C(C)C)c(O[C@@H]2O[C@H](C(=O)N3CCN(C)CC3)[C@@H](O)[C@H](O)[C@H]2O)c1)C(C)C (stereo partly drawn) [Compound 226]
EC50 [1]: 0.28 nM | EC50 (SST2): 9.3 nM | EC50 [2]: 4.3 nM

CC[C@H](C)[C@@H]([C@@H](CC(=O)N1CCC[C@H]1[C@H](OC)[C@@H](C)C(=O)N[C@H](C)[C@@H](O)c1ccccc1)OC)N(C)C(=O)[C@@H](NC(=O)[C@H](C(C)C)N(C)C(=O)OCc1ccc(NC(=O)[C@H](CCCNC(N)=O)NC(=O)[C@@H](NC(=O)CCOCCC(=O)NCCNc2ncc(-c3cc(C)cc(F)c3)c(N3CCC(N)CC3)c2-c2nc3ccc(Cl)cc3[nH]2)C(C)C)c(O[C@@H]2O[C@H](C(=O)NCCC(=O)O)[C@@H](O)[C@H](O)[C@H]2O)c1)C(C)C [Compound 49]
EC50 [1]: 0.14 nM | EC50 (SST2): 3.4 nM | EC50 [2]: 9.4 nM

CC[C@@H](C)[C@H]([C@H](CC(=O)N1CCCC1[C@@H](OC)[C@H](C)C(=O)N[C@@H](C)[C@H](O)c1ccccc1)OC)N(C)C(=O)[C@H](NC(=O)[C@@H](C(C)C)N(C)C(=O)OCc1ccc(NC(=O)[C@@H](C)NC(=O)[C@H](NC(=O)[C@@H](CCCO)NC(=O)CCOCCC(=O)NCCNc2ncc(-c3cc(C)cc(F)c3)c(N3CCC(N)CC3)c2-c2nc3ccc(Cl)cc3[nH]2)C(C)C)c(O[C@H]2O[C@@H](C(=O)O)[C@H](O)[C@@H](O)[C@@H]2O)c1)C(C)C (stereo partly drawn) [Compound 239]
EC50 [1]: 0.16 nM | EC50 (SST2): 4.9 nM | EC50 [2]: 12 nM
